{"source": "patent US20260325465A1", "about": "“SHP-1 INHIBITORS FOR TREATING CANCER” (MDX MANAGEMENT LLC, priority 2022, published 2026)", "key": {"p-STAT1 and p-Erk1/2": {"test_system": "p-STAT1 and p-Erk1/2", "assay": "STAT1 and Erk1/2 phosphorylation in macrophages with cancer cell ligation", "assay_type": "cell-based", "conditions": "IFNγ/LPS", "protocol": "(§1) FIGS. 2A-2G depict that the inhibition of SHP-1 enhances macrophage proinflammatory response, antigen presentation and phagocytosis in a tumor milieu. FIG. 2A and FIG. 2B depict that SHP-1 activity in macrophages is triggered by proinflammatory stimulation and the extracellular cancer cell ligation (“touching”) of macrophages (green bar in FIG. 2A). […] The SHP-2 inhibitor SHP099 (1 μg/ml) was used in assays. FIG. 2C depicts the inhibition of SHP-1 by TPI-1 dose-dependently recovers IFNγ/LPS-induced activation of STAT1 (p-STAT1) and Erk1/2 (p-Erk1/2) de-activated by SHP-1 (red line). FIG. 2D and FIG. 2E depict that the inhibition of SHP-1 in macrophages by TPI-1 enhances production of proinflammatory cytokines (FIG. 2D) and expression of immunogenic antigen presentation machinery (FIG. 2E) by IFNγ/LPS in a tumor milieu. […] The SHP-1 and SHP-2 inhibitors TPI-1 and SHP099, respectively, was used at 1 μg/ml in assays.\nMacrophages with high SHP-1 activity in a tumor milieu diminish production of proinflammatory cytokines but produce high IL-10 (see FIG. 2D, blue bar) under stimulation of IFNγ/LPS. This reinforcement of immunosuppression was reversed by SHP-1 inhibition. […]"}, "[1]": {"test_system": "THP-1 leukemia cells and HT29 colon cancer cells", "assay": "Phagocytosis by human monocytes-derived macrophages", "assay_type": "cell-based", "conditions": "1 μg/ml", "protocol": "as §1"}, "[2]": {"assay": "Study-1: continuous vs intermittent iSHP-1 with TLR agonists, adverse toxicity", "assay_type": "in vivo, mice", "conditions": "i.p.", "protocol": "FIGS. 11A-11E depict the impact of continuous or intermittent iShp-1 treatment on the efficacy and adverse toxicity. FIG. 11A depicts the study design. Mice with KPC pancreatic cancer were either continuously treated with TPI-1 (1× per day) or in an intermittent fashion with gapping days between two treatments (intermittent). Three doses, 1, 3 and 10 mg/kg (i.p.), were tested and TLR agonists (CpG plus PolyI:C, each 10 μg, i.p., 1× every 3 day) was given to kickstart inflammatory response. […] Tumor imaging (FIG. 11B) and volume change records (FIG. 11C) indicate similar efficacies of iShp-1 with continuous or intermittent schemes.\nTumor model: Single engraftment of KPC pancreatic adenocarcinoma\nTreatments & dosing strategies: i) iSHP-1—TPI-1, 1, 3, and 10 mg/kg; i.p. either 1× per day (continuous), or following an intermittent schedule depicted in FIG. 11. ii) TLR agonists (αTLR)—CpG, PolyI:C, each 10 μg; i.p. every 3 days"}, "Study-4: adverse effects": {"assay": "Study-4: adverse effects", "assay_type": "in vivo, mice", "conditions": "TPI-1 with TLR agonists (each 50 μg), i.p.", "protocol": "FIGS. 14A-14E depict that pulse-intermittent inhibition of SHP-1 (iSHP-1) combined with TLR agonists (αTLR) treating late-stage KPC pancreatic ductal adenocarcinoma. FIG. 14A depicts the treatment scheme. Mice with large KPC tumors were treated (i.p.) consecutively for three days with TPI-I plus TLR agonists (CpG, PolyIC and R848, each 50 μg). After the initial pulse treatment, an intermittent period of 9-day was given before the 2nd cycle of treatment of two days with TPI plus TLR agonists. FIG. 14B depicts the luminescent images of mice with KPC tumor during the course of treatment. FIG. 14C depicts tumor volume changes."}, "KPC pancreatic tumor": {"test_system": "KPC pancreatic tumor", "assay": "Cytokines secreted by KPC tumor pieces treated with TLR agonists with or without TPI-1", "design": "species or system mice", "conditions": "TPI-1 0.4 μM with TLR agonists 1 μg/ml, 18 h", "protocol": "KPC pancreatic tumor removed from mice were cut into small pieces and treated with 5 different TLR agonists (R848, 3M-852A, Motolimod, Bropirimine or Vesatolimod; 1 μg/ml each) without or with SHP-1 inhibitor TPI-1 (0.4 μM). After 18 h, cytokines secreted into the culture medium were assayed."}}}
{"smiles": "O=C1C=CC(=O)C(c2cc(Cl)ccc2Cl)=C1", "note": "[TPI-1]", "values": [{"measurement": "STAT-1 and Erk1/2 phosphorylation", "setting": "p-STAT1 and p-Erk1/2", "result": "dose-dependently released cancer cell-imposed inhibition"}, {"measurement": "phagocytosis of cancer cells", "setting": "[1]", "result": "promotes proinflammatory-activated macrophages for phagocytosis of cancer cells"}, {"measurement": "adverse effects, continuous dosing", "setting": "[2]; 1× per day", "result": "incurred acute anemia, proteinuria, splenomegaly and lung inflammation"}, {"measurement": "adverse effects, intermittent dosing", "setting": "[2]; intermittent", "result": "did not display or were minor"}, {"measurement": "adverse effects and body weight", "setting": "Study-4: adverse effects", "result": "minor adverse effects and transient body weight loss followed by recovery"}, {"measurement": "cytokines secreted, with SHP-1 inhibitor", "setting": "KPC pancreatic tumor", "result": "induced high production of proinflammatory cytokine s while suppressing production of IL-10 and TGFβ"}]}
